The values that follow come from patent US12673975B2, “Cyclic peptide, cell scaffold material, cell separating material, and medium” (FUJIFILM Corporation, priority 2019, dated 2026).

Data set [1] concerns the target human integrin αvβ5 (Homo sapiens, UniProt P06756+P18084). Kind of data set: Evaluation of integrin binding property (surface plasmon resonance, Biacore 3000, immobilized cyclic peptide). An outline of the steps: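 SPR with cyclic peptide amine-coupled via EDC/NHS to a CM5 chip, blank channel as reference. Integrin αvβ5 at 30, 100, 300 and 1,000 nM injected 10 min at 25 °C in HEPES buffer pH 7.4 with 5 mM MgCl2, 30 min buffer flow, EDTA regeneration; Kd from reference-subtracted signals, graded by category.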
In general terms: Surface plasmon resonance follows binding to a sensor surface in real time, without labels.

Data set [2] can be described thus: Evaluation of molecule stability (alkali treatment, residual rate by LC/MS). Format: physicochemical. The conditions noted are these: for Performance evaluation: Stability (residual rate of cyclic peptide after alkali treatment): 500 μM peptide aqueous solution plus equivalent of 1 M sodium hydroxide, 15° C., 3 hours, LC/MS peak area; for Stability (molecule stability, residual rate of the cyclic peptide rank): alkali treatment, residual rate by LC/MS. A digest of the protocol: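 500 μM aqueous cyclic peptide mixed with an equal volume of 1 M NaOH and held 3 h at 15 °C. Residual rate is total LC/MS peak area after treatment relative to untreated (100%), using a C18 column, pH 3 ammonium formate/acetonitrile gradient, 45 °C, ESI±.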

The mark [3] stands for this setting: SPR, 25° C., HEPES buffer with 5 mM magnesium chloride, integrin 30-1,000 nM, read-out: Performance evaluation: Binding activity (dissociation constant between the cyclic peptide and human integrin αvβ5).
Setting [4] is: surface plasmon resonance, immobilized cyclic peptide, human integrin αvβ5, read-out: Binding activity (integrin binding property, dissociation constant rank).

SMILES strings stand for the structures. pKd: −log10 of the molar value. Read-outs that look alike come from different tables or passages of the source. Starred links: 1 amine or outer side, 2 acyl side, 3 side chain; linkers in the order of their positions; H or OH if unused. Positions of bridges follow the written chain, without caps; N, C: chain ends. Non-standard residues stand in square brackets, D forms with d. Residues, ends and D or L forms follow the SMILES beside them. Pen = CC(C)(S)[C@H](N)C(=O)O; hCys = N[C@@H](CCS)C(=O)O; Orn = NCCC[C@H](N)C(=O)O; Dab = NCC[C@H](N)C(=O)O; X1 = O=C(C[*:2])[*:1]; X2 = O=C(C[*:1])[*:2]

Chain of human integrin αvβ5 (P06756 31-1048): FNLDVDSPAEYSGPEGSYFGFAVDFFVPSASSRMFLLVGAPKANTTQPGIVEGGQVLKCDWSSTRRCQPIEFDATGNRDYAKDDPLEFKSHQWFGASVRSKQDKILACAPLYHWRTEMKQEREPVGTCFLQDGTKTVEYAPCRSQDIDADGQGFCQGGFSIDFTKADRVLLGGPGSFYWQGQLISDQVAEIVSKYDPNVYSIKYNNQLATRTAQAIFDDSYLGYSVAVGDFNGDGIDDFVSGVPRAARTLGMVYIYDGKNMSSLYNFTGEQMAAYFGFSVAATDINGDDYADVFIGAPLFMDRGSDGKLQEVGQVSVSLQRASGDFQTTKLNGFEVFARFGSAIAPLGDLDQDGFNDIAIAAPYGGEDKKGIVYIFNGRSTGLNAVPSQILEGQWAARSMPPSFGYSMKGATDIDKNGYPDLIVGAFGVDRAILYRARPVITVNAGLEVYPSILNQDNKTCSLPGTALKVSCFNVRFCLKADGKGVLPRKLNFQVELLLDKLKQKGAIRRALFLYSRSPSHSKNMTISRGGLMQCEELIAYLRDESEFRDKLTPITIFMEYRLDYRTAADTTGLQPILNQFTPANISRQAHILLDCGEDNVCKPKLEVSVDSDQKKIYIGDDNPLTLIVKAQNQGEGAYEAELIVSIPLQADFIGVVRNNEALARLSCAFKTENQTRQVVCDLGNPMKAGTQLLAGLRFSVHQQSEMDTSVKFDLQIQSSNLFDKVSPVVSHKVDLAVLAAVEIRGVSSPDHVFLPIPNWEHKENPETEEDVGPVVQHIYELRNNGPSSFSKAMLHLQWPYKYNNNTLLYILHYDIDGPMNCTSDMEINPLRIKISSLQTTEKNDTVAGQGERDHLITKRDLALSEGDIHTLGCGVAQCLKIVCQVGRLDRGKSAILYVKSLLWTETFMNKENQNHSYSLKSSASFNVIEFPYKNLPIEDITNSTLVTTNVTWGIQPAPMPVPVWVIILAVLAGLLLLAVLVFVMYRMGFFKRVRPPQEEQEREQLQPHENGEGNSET
Chain of human integrin αvβ5 (P18084 24-799): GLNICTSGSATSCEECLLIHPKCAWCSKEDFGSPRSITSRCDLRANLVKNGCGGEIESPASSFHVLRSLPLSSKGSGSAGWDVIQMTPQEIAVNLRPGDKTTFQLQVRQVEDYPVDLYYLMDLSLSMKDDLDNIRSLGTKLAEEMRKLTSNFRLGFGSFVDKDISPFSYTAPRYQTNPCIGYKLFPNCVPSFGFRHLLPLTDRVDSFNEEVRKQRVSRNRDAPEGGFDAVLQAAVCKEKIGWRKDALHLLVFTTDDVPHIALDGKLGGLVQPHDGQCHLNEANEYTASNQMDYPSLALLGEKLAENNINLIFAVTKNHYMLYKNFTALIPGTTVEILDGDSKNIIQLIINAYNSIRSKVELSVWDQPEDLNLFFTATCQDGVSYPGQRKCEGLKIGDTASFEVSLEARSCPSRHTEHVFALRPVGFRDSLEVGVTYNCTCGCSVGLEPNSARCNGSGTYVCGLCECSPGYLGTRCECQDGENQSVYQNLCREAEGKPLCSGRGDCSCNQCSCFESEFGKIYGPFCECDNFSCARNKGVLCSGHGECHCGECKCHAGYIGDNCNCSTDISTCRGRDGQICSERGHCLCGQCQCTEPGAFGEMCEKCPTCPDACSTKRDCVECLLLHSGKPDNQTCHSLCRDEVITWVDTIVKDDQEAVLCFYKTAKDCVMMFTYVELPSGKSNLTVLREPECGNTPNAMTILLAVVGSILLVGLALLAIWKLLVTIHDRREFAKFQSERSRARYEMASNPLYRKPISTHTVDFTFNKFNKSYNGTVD

In the case of `C[C@H](NC(=O)[C@H](CCCCN)NC(=O)[C@H](CCCCN)NC(=O)[C@@H](N)CCCCN)C(=O)N[C@H]1CCSCC(=O)NCC[C@@H](C(=O)N[C@@H](CC(=O)O)C(=O)O)NC(=O)[C@H](CC(=O)O)NC(=O)[C@H](Cc2ccc(O)cc2)NC(=O)[C@H](CC(N)=O)NC(=O)[C@H](CC(=O)O)NC(=O)CNC(=O)[C@H](CCCNC(=N)N)NC(=O)[C@@H]2CCCN2C(=O)[C@H](CCC(=O)O)NC1=O` [Cyclic peptide 35, KKKA-(Hcy)-EPRGDNYD(Dab(acetyl))D] (H-KKKA[hCys]EPRGDNYD[Dab]D-OH; linker 5-14 via X2), in data set [1] (setting [3]), the pKd is 6.70 to 7.00. In data set [2], the “Performance evaluation: Stability (residual rate of cyclic peptide after alkali treatment)” value is listed as “A (The residual rate of the cyclic peptide is 70% or more.)”.

As to `CC[C@H](C)[C@@H]1NC(=O)[C@@H](NC(=O)CNC(=O)[C@H](CCCCN)NC(=O)[C@H](CCCCN)NC(=O)[C@@H](N)CCCCN)CCSCC(=O)NCC[C@@H](C(=O)O)NC(=O)[C@H](CCCNC(=N)N)NC(=O)[C@H](Cc2ccccc2)NC(=O)[C@H]([C@@H](C)O)NC(=O)[C@H](CC(=O)O)NC(=O)CNC(=O)[C@H](CCCNC(=N)N)NC(=O)[C@@H]2CCCN2C1=O` [Cyclic peptide 59, KKKG-(Hcy)-IPRGDTFR(Dab(acetyl))] (H-KKKG[hCys]IPRGDTFR[Dab]-OH; linker 5-14 via X2), the pKd in data set [1] (setting [3]) was greater than 7.30. In data set [2], the “Performance evaluation: Stability (residual rate of cyclic peptide after alkali treatment)” value was “A (The residual rate of the cyclic peptide is 70% or more.)”.

For `CC[C@H](C)[C@@H]1NC(=O)[C@@H](NC(=O)CNC(=O)[C@H](CCCCN)NC(=O)[C@H](CCCCN)NC(=O)[C@@H](N)CCCCN)CCCNC(=O)CSC(C)(C)[C@@H](C(=O)N[C@@H](C)C(=O)O)NC(=O)[C@H](CCCNC(=N)N)NC(=O)[C@H](Cc2ccccc2)NC(=O)[C@H]([C@@H](C)O)NC(=O)[C@H](CC(=O)O)NC(=O)CNC(=O)[C@H](CCCNC(=N)N)NC(=O)[C@@H]2CCCN2C1=O` [Cyclic peptide 134, KKKG(Orn(acetyl))IPRGDTFR-(Pen)-A] (H-KKKG[Orn]IPRGDTFR[Pen]A-OH; linker 5-14 via X1), in data set [1] (setting [4]), the pKd was greater than 7.30. Besides, the “Stability (molecule stability, residual rate of the cyclic peptide rank)” value in data set [2] is “A (The residual rate of the cyclic peptide is 70% or more.)”.

For the compound `C[C@H](NC(=O)[C@@H]1CCNC(=O)CSCC[C@H](NC(=O)CNC(=O)[C@H](CCCCN)NC(=O)[C@H](CCCCN)NC(=O)[C@@H](N)CCCCN)C(=O)N[C@@H](CCC(=O)O)C(=O)N2CCC[C@H]2C(=O)N[C@@H](CCCNC(=N)N)C(=O)NCC(=O)N[C@@H](CC(=O)O)C(=O)N[C@@H]([C@@H](C)O)C(=O)N[C@@H](Cc2ccccc2)C(=O)N[C@@H](CCCNC(=N)N)C(=O)N1)C(=O)O` [Cyclic peptide 69, KKKG-(Hcy)-EPRGDTFR(Dab(acetyl))A] (H-KKKG[hCys]EPRGDTFR[Dab]A-OH; linker 5-14 via X2), the pKd in data set [1] (setting [3]) is greater than 7.30. Further, the “Performance evaluation: Stability (residual rate of cyclic peptide after alkali treatment)” value in data set [2] was “A (The residual rate of the cyclic peptide is 70% or more.)”.

In the case of `CC[C@H](C)[C@@H]1NC(=O)[C@@H](NC(=O)[C@H](CCCCN)NC(=O)[C@H](CCCCN)NC(=O)[C@@H](N)CCCCN)CCSCC(=O)NCC[C@@H](C(=O)N[C@@H](CC(=O)O)C(=O)O)NC(=O)[C@H](CCCNC(=N)N)NC(=O)[C@H](Cc2ccccc2)NC(=O)[C@H](CC(N)=O)NC(=O)[C@H](CC(=O)O)NC(=O)CNC(=O)[C@H](CCCNC(=N)N)NC(=O)[C@@H]2CCCN2C1=O` [Cyclic peptide 5, KKK-(Hcy)-IPRGDNFR(Dab(acetyl))D] (H-KKK[hCys]IPRGDNFR[Dab]D-OH; linker 4-13 via X2), the pKd in data set [1] (setting [3]) is greater than 7.30. Moreover, in data set [2], the “Performance evaluation: Stability (residual rate of cyclic peptide after alkali treatment)” value was “A (The residual rate of the cyclic peptide is 70% or more.)”.

For `C[C@H](NC(=O)[C@H](CCCCN)NC(=O)[C@H](CCCCN)NC(=O)[C@@H](N)CCCCN)C(=O)N[C@H]1CCSCC(=O)NCC[C@@H](C(=O)O)NC(=O)[C@H](CCCNC(=N)N)NC(=O)[C@H](Cc2ccc(O)cc2)NC(=O)[C@H](CC(N)=O)NC(=O)[C@H](CC(=O)O)NC(=O)CNC(=O)[C@H](CCCNC(=N)N)NC(=O)[C@@H]2CCCN2C(=O)[C@H](CCC(=O)O)NC1=O` [Cyclic peptide 45, KKKA-(Hcy)-EPRGDNYR(Dab(acetyl))] (H-KKKA[hCys]EPRGDNYR[Dab]-OH; linker 5-14 via X2), the pKd in data set [1] (setting [3]) was 7.00 to 7.30. Besides, the “Performance evaluation: Stability (residual rate of cyclic peptide after alkali treatment)” value in data set [2] was “A (The residual rate of the cyclic peptide is 70% or more.)”.

Consider `C[C@H](NC(=O)[C@H](CCCCN)NC(=O)[C@H](CCCCN)NC(=O)[C@@H](N)CCCCN)C(=O)N[C@H]1CCSCC(=O)NCC[C@@H](C(=O)N[C@@H](CC(=O)O)C(=O)O)NC(=O)[C@H](CCCNC(=N)N)NC(=O)[C@H](Cc2ccc(O)cc2)NC(=O)[C@H](CC(N)=O)NC(=O)[C@H](CC(=O)O)NC(=O)CNC(=O)[C@H](CCCNC(=N)N)NC(=O)[C@@H]2CCCN2C(=O)[C@H](Cc2ccc(O)cc2)NC1=O` [Cyclic peptide 32, KKKA-(Hcy)-YPRGDNYR(Dab(acetyl))D] (H-KKKA[hCys]YPRGDNYR[Dab]D-OH; linker 5-14 via X2), for which, in data set [1] (setting [3]), the pKd is greater than 7.30. The “Performance evaluation: Stability (residual rate of cyclic peptide after alkali treatment)” value in data set [2] is recorded as “A (The residual rate of the cyclic peptide is 70% or more.)”.

With `CC(C)C[C@@H]1NC(=O)[C@@H](NC(=O)[C@H](C)NC(=O)[C@H](CCCCN)NC(=O)[C@H](CCCCN)NC(=O)[C@@H](N)CCCCN)CCSCC(=O)NCC[C@@H](C(=O)N[C@@H](CC(=O)O)C(=O)O)NC(=O)[C@H](CCCNC(=N)N)NC(=O)[C@H](Cc2ccc(O)cc2)NC(=O)[C@H](CC(N)=O)NC(=O)[C@H](CC(=O)O)NC(=O)CNC(=O)[C@H](CCCNC(=N)N)NC(=O)[C@@H]2CCCN2C1=O` [Cyclic peptide 31, KKKA-(Hcy)-LPRGDNYR(Dab(acetyl))D] (H-KKKA[hCys]LPRGDNYR[Dab]D-OH; linker 5-14 via X2), the pKd in data set [1] (setting [3]) is greater than 7.30. The “Performance evaluation: Stability (residual rate of cyclic peptide after alkali treatment)” value in data set [2] was “A (The residual rate of the cyclic peptide is 70% or more.)”.

Take `C[C@H](NC(=O)[C@H](CCCCN)NC(=O)[C@H](CCCCN)NC(=O)[C@@H](N)CCCCN)C(=O)N[C@H]1CCSCC(=O)NCC[C@@H](C(=O)N[C@@H](CC(=O)O)C(=O)O)NC(=O)[C@H](CCCNC(=N)N)NC(=O)[C@H](Cc2ccc(O)cc2)NC(=O)[C@H](CC(N)=O)NC(=O)[C@H](CC(=O)O)NC(=O)CNC(=O)[C@H](CCCNC(=N)N)NC(=O)[C@@H]2CCCN2C(=O)[C@H](CCC(=O)O)NC1=O` [Cyclic peptide 42, KKKA-(Hcy)-EPRGDNYR(Dab(acetyl))D] (H-KKKA[hCys]EPRGDNYR[Dab]D-OH; linker 5-14 via X2): the pKd in data set [1] (setting [3]) is 7.00 to 7.30. Moreover, in data set [2], the “Performance evaluation: Stability (residual rate of cyclic peptide after alkali treatment)” value is “A (The residual rate of the cyclic peptide is 70% or more.)”.

With `CC[C@H](C)[C@@H]1NC(=O)[C@@H](NC(=O)CNC(=O)[C@H](CCCCN)NC(=O)[C@H](CCCCN)NC(=O)[C@@H](N)CCCCN)CCNC(=O)CSC(C)(C)[C@@H](C(=O)N[C@@H](C)C(=O)O)NC(=O)[C@H](CCCNC(=N)N)NC(=O)[C@H](Cc2ccccc2)NC(=O)[C@H]([C@@H](C)O)NC(=O)[C@H](CC(=O)O)NC(=O)CNC(=O)[C@H](CCCNC(=N)N)NC(=O)[C@@H]2CCCN2C1=O` [Cyclic peptide 133, KKKG(Dab(acetyl))IPRGDTFR-(Pen)-A] (H-KKKG[Dab]IPRGDTFR[Pen]A-OH; linker 5-14 via X1), the pKd in data set [1] (setting [4]) was 7.00 to 7.30. Besides, in data set [2], the “Stability (molecule stability, residual rate of the cyclic peptide rank)” value was “A (The residual rate of the cyclic peptide is 70% or more.)”.

Take `CC(C)[C@@H]1NC(=O)[C@@H](NC(=O)CNC(=O)[C@H](CCCCN)NC(=O)[C@H](CCCCN)NC(=O)[C@@H](N)CCCCN)CCSCC(=O)NCC[C@@H](C(=O)N[C@@H](C)C(=O)O)NC(=O)[C@H](C)NC(=O)[C@H](Cc2ccccc2)NC(=O)[C@H](CO)NC(=O)[C@H](CC(=O)O)NC(=O)CNC(=O)[C@H](CCCNC(=N)N)NC(=O)[C@@H]2CCCN2C1=O` [Cyclic peptide 98, KKKG-(Hcy)-VPRGDSFA(Dab(acetyl))A] (H-KKKG[hCys]VPRGDSFA[Dab]A-OH; linker 5-14 via X2): the pKd in data set [1] (setting [3]) is greater than 7.30. In addition, the “Performance evaluation: Stability (residual rate of cyclic peptide after alkali treatment)” value in data set [2] was “A (The residual rate of the cyclic peptide is 70% or more.)”.

In the case of `C[C@H](NC(=O)[C@@H]1CCNC(=O)CSCC[C@H](NC(=O)[C@H](CCCCN)NC(=O)[C@H](CCCCN)NC(=O)[C@@H](N)CCCCN)C(=O)N[C@@H](CCC(=O)O)C(=O)N2CCC[C@H]2C(=O)N[C@@H](CCCNC(=N)N)C(=O)NCC(=O)N[C@@H](CC(=O)O)C(=O)N[C@@H](CC(N)=O)C(=O)N[C@@H](Cc2ccccc2)C(=O)N[C@@H](CCCNC(=N)N)C(=O)N1)C(=O)O` [Cyclic peptide 23, KKK-(Hcy)-EPRGDNFR(Dab(acetyl))A] (H-KKK[hCys]EPRGDNFR[Dab]A-OH; linker 4-13 via X2), the pKd in data set [1] (setting [3]) is greater than 7.30. For the same compound, the “Performance evaluation: Stability (residual rate of cyclic peptide after alkali treatment)” value in data set [2] is reported as “A (The residual rate of the cyclic peptide is 70% or more.)”.

In the case of `C[C@H](NC(=O)[C@@H]1CCNC(=O)CSCC[C@H](NC(=O)[C@H](C)NC(=O)[C@H](CCCCN)NC(=O)[C@H](CCCCN)NC(=O)[C@@H](N)CCCCN)C(=O)N[C@@H]([C@@H](C)O)C(=O)N[C@@H]([C@@H](C)O)C(=O)N[C@@H](CCCNC(=N)N)C(=O)NCC(=O)N[C@@H](CC(=O)O)C(=O)N[C@@H](CO)C(=O)N[C@@H](Cc2ccccc2)C(=O)N[C@@H](C)C(=O)N1)C(=O)O` [Cyclic peptide 161, KKKA-(Hcy)-TTRGDSFA(Dab(acetyl))A] (H-KKKA[hCys]TTRGDSFA[Dab]A-OH; linker 5-14 via X2), the pKd in data set [1] (setting [4]) is 7.00 to 7.30. Further, the “Stability (molecule stability, residual rate of the cyclic peptide rank)” value in data set [2] was “A (The residual rate of the cyclic peptide is 70% or more.)”.
